Results on three molecules are retold here after ChEMBL document CHEMBL1150084, “Two Benzylated Dihydroflavonols from Cudrania tricuspidata” (1995).

Converted amounts (≈) assume the structure as drawn.

Common to all, as to format: functional
One experiment relates to KM12. Briefly: Cytotoxicity against human KM12 cells after 48 hrs by SRB assay. Conditions: KM12, 48 h, read-out: ED50 (the source's name).
The next experiment deals with LOX IMVI. Briefly: Cytotoxicity against human LOXIMVI cells after 48 hrs by SRB assay. Conditions: read-out: ED50 (the source's name). Background: The SRB assay estimates cell density from bound dye.
The test system of the next experiment is MOLT-4F. Briefly: Cytotoxicity against human MOLT4F cells after 48 hrs by SRB assay. The settings on record: read-out: ED50 (the source's name).
The nature of experiment [1]: Cytotoxicity against human CRL1579 cells after 48 hrs by SRB assay. Conditions: read-out: ED50 (the source's name).
Another experiment deals with UO-31. Briefly: Cytotoxicity against human UO31 cells after 48 hrs by SRB assay. The settings on record: UO-31, 48 h, read-out: ED50 (the source's name).

Regarding `COc1cccc2c1C(=O)c1c(O)c3c(c(O)c1C2=O)C[C@@](O)(C(=O)CO)C[C@@H]3O[C@H]1C[C@H](N)[C@H](O)[C@H](C)O1` [DOXORUBICIN], the EC50 in the experiment on KM12 stood at 0.11 µg/mL (≈ 0.202 µM); in the experiment with LOX IMVI, 0.13 µg/mL (≈ 0.239 µM); in the experiment with MOLT-4F, 0.02 µg/mL (≈ 0.0368 µM); in experiment [1] it was 0.16 µg/mL (≈ 0.294 µM); in the experiment on UO-31 it was 0.3 µg/mL (≈ 0.552 µM).

In the case of `O=C1c2c(O)c(Cc3ccc(O)cc3)c(O)c(Cc3ccc(O)cc3)c2O[C@H](c2ccc(O)cc2)[C@H]1O` [GERICUDRANIN D], the EC50 came out at 5 µg/mL (≈ 9.99 µM) in the experiment with KM12; 16.6 µg/mL (≈ 33.2 µM) in the experiment with LOX IMVI; 8.9 µg/mL (≈ 17.8 µM) with MOLT-4F; 9.5 µg/mL (≈ 19 µM) in experiment [1]; 5.2 µg/mL (≈ 10.4 µM) with UO-31.

For the molecule `O=C1c2c(cc(O)c(Cc3ccc(O)cc3)c2O)O[C@H](c2ccc(O)cc2)[C@H]1O` [GERICUDRANIN E], the EC50 in the experiment with KM12 was found to be 11.9 µg/mL (≈ 30.2 µM); in the experiment on LOX IMVI, 12.5 µg/mL (≈ 31.7 µM); in the experiment on MOLT-4F it was 10.7 µg/mL (≈ 27.1 µM); in experiment [1], 2.9 µg/mL (≈ 7.35 µM); with UO-31, 7.6 µg/mL (≈ 19.3 µM).
